This note sets out measurements from US7772252B2, “Heterocyclic substituted carbonyl derivatives and their use as dopamine D3 receptor ligands” (Aventis Pharmaceuticals Inc., priority 2001, dated 2010).

T1 sequence (P35462 whole entry): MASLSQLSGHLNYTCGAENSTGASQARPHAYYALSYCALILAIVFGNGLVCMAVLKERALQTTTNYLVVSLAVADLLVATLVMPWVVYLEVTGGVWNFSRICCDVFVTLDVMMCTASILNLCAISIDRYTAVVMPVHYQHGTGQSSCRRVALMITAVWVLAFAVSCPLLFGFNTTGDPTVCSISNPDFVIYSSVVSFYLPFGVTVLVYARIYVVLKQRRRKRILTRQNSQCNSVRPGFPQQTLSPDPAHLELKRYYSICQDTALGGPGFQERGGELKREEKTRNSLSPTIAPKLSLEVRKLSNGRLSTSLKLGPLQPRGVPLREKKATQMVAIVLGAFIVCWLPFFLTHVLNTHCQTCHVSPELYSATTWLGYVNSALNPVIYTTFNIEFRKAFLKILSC

The first experiment has as its target T1, cloned human dopamine D3 receptors (Homo sapiens, UniProt P35462).
T1 construct: expressed in transfected cells; membrane homogenate
Nature of the experiment: [N-Methyl-3H]Spiroperidol binding to cloned human dopamine D3 receptors. To be noted: read-out: D3 Ki. In outline: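 Radioligand displacement with [N-methyl-3H]spiroperidol was run on membranes from a high-expressing CHO clone carrying human D3. Membranes were prepared in 10% DMSO and stored at −80° C.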
Take `O=C(NC1CCN(CCc2cccc(Cl)c2)CC1)[C@@H]1C[C@H]1CN1CCC(c2noc3ccsc23)CC1` [compound 833748]: the Ki stood at 1.38 nM. Consider `COc1ccc2c(c1)c(N1CCN(C[C@@H]3C[C@H]3C(=O)NC3CCN(Cc4ccc(Cl)cc4)CC3)CC1)nn2C` [compound 833834], for which the Ki was 0.333 nM. As for `COc1ccc2c(c1)c(N1CCN(C[C@@H]3C[C@H]3C(=O)NC3CCN(Cc4ccc(F)cc4)CC3)CC1)nn2C` [compound 833835], the Ki amounted to 0.499 nM. Same read-out and setting: under `COc1ccc2c(c1)c(N1CCN(C[C@@H]3C[C@H]3C(=O)NC3CCN(Cc4cccc(Cl)c4)CC3)CC1)nn2C` [compound 833836] stands 1.36 nM; under `O=C(N[C@H]1CC[C@H](O)CC1)[C@@H]1C[C@H]1CN1CCN(c2nn(-c3ccc(OC(F)(F)F)cc3)c3ccsc23)CC1` [compound 833855], 12.4 nM; under `C[C@H]1CC[C@H](NC(=O)[C@@H]2C[C@H]2CN2CCC(c3nn(-c4ccccc4)c4ccsc34)CC2)CC1` [compound 833909], 1.86 nM. Still for that read-out and setting: the value for `C[C@H]1CC[C@H](NC(=O)[C@@H]2C[C@H]2CN2CCC(c3n[nH]c4ccc(C(F)(F)F)cc34)CC2)CC1` [compound 833934] was 0.633 nM; that for `C[C@H]1CC[C@H](NC(=O)[C@@H]2C[C@H]2CN2CCC(c3n[nH]c4cc(C(F)(F)F)ccc34)CC2)CC1` [compound 833941] was 8.98 nM. Same read-out and setting: the value for `C[C@H]1CC[C@H](NC(=O)[C@@H]2C[C@H]2CN2CCC(c3noc4ccc(C(F)(F)F)cc34)CC2)CC1` [compound 834012, 2R-[4-(5-Trifluoromethyl-benzo[d]isoxazol-3-yl)-piperidin-1-ylmethyl]-cyclopropane-1R-carboxylic acid trans-(4-methyl-cyclohexyl)-amide] was 0.241 nM.

Turning to `O=C(NCCCN1CCCCC1)[C@@H]1C[C@H]1CN1CCC(c2csc3cc(C(F)(F)F)ccc23)CC1` [compound 834015], the Ki was 1.24 nM. Same read-out and setting: under `O=C([C@@H]1C[C@H]1CN1CCC(c2csc3cc(C(F)(F)F)ccc23)CC1)N1CCC(Cn2ccnc2)CC1` [compound 834017] stands 1.62 nM; under `COc1cccc2c(C3CCN(C[C@@H]4C[C@H]4C(=O)NC4CC5CCC4(C)C5(C)C)CC3)nn(C)c12` (stereo partly drawn) [compound 834055], 62 nM; under `COc1cccc2c(C3CCN(C[C@@H]4C[C@H]4C(=O)NCCCN4CCCCC4)CC3)nn(C)c12` [compound 834056], 93.2 nM.

In the case of `COc1cccc2c(C3CCN(C[C@@H]4C[C@H]4C(=O)NCC45CC6CC(CC(C6)C4)C5)CC3)nn(C)c12` [compound 834057], the Ki came to 89.4 nM. The same measure, in the same setting: under `COc1cccc2c(C3CCN(C[C@@H]4C[C@H]4C(=O)NCCCn4ccnc4)CC3)nn(C)c12` [compound 834058] stands 91.4 nM; under `Cc1ccc2c(c1)c(C1CCN(C[C@@H]3C[C@H]3C(=O)N[C@H]3CC[C@H](C)CC3)CC1)nn2C` [compound 834059], 2.76 nM; under `Cc1ccc2c(c1)c(C1CCN(C[C@@H]3C[C@H]3C(=O)NCCCn3ccnc3)CC1)nn2C` [compound 834129], 6.75 nM.

With `COc1cccc2c(C3CCN(C[C@@H]4C[C@H]4C(=O)NC4CC5CC(C4C)C5(C)C)CC3)nn(C)c12` (stereo partly drawn) [compound 834171], the Ki was found to be 65.2 nM. On the same count and under the same terms, under `O=C(NCCCn1ccnc1)[C@@H]1C[C@H]1CN1CCN(c2csc3cc(Cl)ccc23)CC1` [compound 834172] stands 0.837 nM; under `O=C(NCCCN1CCOCC1)[C@@H]1C[C@H]1CN1CCN(c2nn(-c3ccc(C(F)(F)F)cc3)c3ccsc23)CC1` [compound 834205], 90.5 nM; under `O=C(NCCCN1CCSCC1)[C@@H]1C[C@H]1CN1CCN(c2nn(-c3ccc(C(F)(F)F)cc3)c3ccsc23)CC1` [compound 834206], 88.8 nM. Same read-out and setting: under `CC1CCN(CCCNC(=O)[C@@H]2C[C@H]2CN2CCN(c3nn(-c4ccc(OC(F)(F)F)cc4)c4ccsc34)CC2)CC1` [compound 834207] stands 71.4 nM.

The next experiment addresses T2, cloned human alpha-1A adrenergic receptors (α1a) (Homo sapiens, UniProt P35348).
T2 construct: expressed in transfected cells; membranes
T2 sequence (P35348 1-466): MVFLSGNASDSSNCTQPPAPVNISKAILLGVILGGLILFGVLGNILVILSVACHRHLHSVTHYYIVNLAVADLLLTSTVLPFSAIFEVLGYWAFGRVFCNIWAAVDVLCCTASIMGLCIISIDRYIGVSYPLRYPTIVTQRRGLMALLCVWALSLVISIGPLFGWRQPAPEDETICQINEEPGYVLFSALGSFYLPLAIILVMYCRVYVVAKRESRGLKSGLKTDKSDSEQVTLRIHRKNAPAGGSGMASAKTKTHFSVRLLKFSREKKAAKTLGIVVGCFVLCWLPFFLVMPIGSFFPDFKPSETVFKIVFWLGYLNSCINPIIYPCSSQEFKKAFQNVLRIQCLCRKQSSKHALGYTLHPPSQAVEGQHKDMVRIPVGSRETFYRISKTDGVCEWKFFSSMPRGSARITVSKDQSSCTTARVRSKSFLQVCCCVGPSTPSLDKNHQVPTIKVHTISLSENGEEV
Nature of the experiment: [3H]Prazosin binding to cloned human alpha-1A adrenergic receptors expressed in CHO cells. To be noted: read-out: halpha1Ki (nM) h = human. An excerpt:
^3H]Prazosin Binding to Cloned Human Alpha-1A Adrenergic Receptors (α1a) Expressed in Chinese Hamster Ovary Cells (CHO)
• Purpose: This in vitro assay is designed as a screen to identify compounds displaying a affinity for the human α1a adrenoceptor subtype expressed in the membrane fragments of CHO cells. The assay measures the ability of the test compounds to displace [^3H] prazosin from α1a sites. • The identification of multiple vascular α1-addrenoceptors (α1a, α1b, α1d) in vitro has provided impetus to define the role(s) of these subtypes in cardiovascular regulation in vivo (Vargas and Gorman, 1995). […] Prazosin is a potent antagonist of the human α1a-adrenoceptor subtype, which has been cloned and is expressed in the membrane fragments of CHO cells. • hα1a receptor: The cloning of the human α1a cDNA was accomplished first by screening a human prostate cDNA library (Clontech), from which a portion of the coding region was obtained. This DNA fragment was then used to screen a human leukocyte genomic library (Clontech), and the rest of the coding sequence was obtained. Later these two fragments were spliced together. The entire coding sequence was then fully sequenced including matching PCR sequence with original genomic coding sequence, thus ensuring splice sites were joined correctly (Schwinn et al., 1995). Once sequenced, the gene was subcloned into the expression vector pcDNA3 (Invitrogen). Plasmid DNA was then used for transfection into CHO cells and G418 resistant clones were isolated. A clone expressing high levels of the hα1a receptor (as determined by mRNA and receptor binding data) was chosen and pharmacologically characterized. • Culture Media Ingredients for Adherent α1a expressing CHO Culture: • A. HAM's F-12 (Celigro) • B. 10% 0.2 micron filtered Fetal Bovine Serum (FBS)(Celigro) • C. 1% 0.2 micron filtered Penicillin-Streptomycin (Celigro) • D. G418 0.2 micron filtered (Geneticin 400 μg/ml)(Celigro) • Cells are cultured using established methods and procedures in either 150×25 mm culture plates (scale up to 100 plates) or a combination of these plates and 70 roller bottles. One culturing/harvest cycle typically requires 2 weeks and yields between 100-400 mg protein. Plates or bottles are incubated at 37° C.+5% CO2. • Storage: Cells are harvested by mechanical scraping, washed using PBS, collected in 250 ml Corning polypropylene centrifuge tubes, spun down (1500 RPM) and resuspended in dH2O 10% DMSO (final volume per harvest is approximately 50 ml). Protein determination is made using the Biorad DC Assay Kit. Finally, the appropriate volume is aliquoted into a 2 ml Corning Cryovial (10 mg/1-1.5 ml) which is stored at −80° C.
• Assay Requirement: 0.5 cryovials per 96 well plate (assay volume=200 μl/well) • [^3H]-Ligand: [7-methoxy-^3H]-Prazosin: 1.0 nM (NEN, NET-823) • 70-87 Ci/mmol • Materials: Phentolamine mesylate (Research Biochemicals Int. #P-131) • 96 well flat bottom plates (Beckman) • Unifilter GF/B Plate (Packard) • Polyethylenimine (Sigma #P-3134) • TomTec or Packard Filtermate 196 Cell Harvesters • Packard TopCount Scintillation Counter • Buffers: A: 50 mM Tris HCl; 0.1% ascorbate, pH 7.7 (incubation buffer) • B: 50 mM Tris HCl; pH 7.7 (wash buffer) • Procedure: Assay additions are as follows (in the order indicated): • Total Binding=50 μl buffer A+50 μl [^3H]prazosin+100 μl membrane • Nonsp. Bd.=50 μl 10 μM phentolamine+50 μl [^3H]prazosin+100 μl membrane • Test Cpd.=50 μl compound+50 μl [^3H]prazosin+100 μl membrane • Compounds to be evaluated are weighed out to yield a 10 mM stock solution in DMSO in a 24 well polystyrene plate. This is diluted to a 0.5 mM stock in dH2O, Serial dilutions in Buffer A are made from which 50 μl additions to the plate are made in duplicate in order to achieve the final concentrations desired. Typically, one 96 well plate is used to evaluate 11 compounds at 4 concentrations (10^−6-10^−9 M) in duplicate. Total binding and nonspecific binding are determined in quadruplicate. […]
As for `CC1(C)CCCN(C(=O)CCCN2CCN(c3csc4cc(F)ccc34)CC2)C1` (racemic) [compound 826857], the Ki was found to be 9.82 nM. Still for that read-out and setting: under `CN(C)C1CCN(C(=O)CCCN2CCN(c3csc4cc(F)ccc34)CC2)C1` (stereo not drawn) [compound 826863] stands 32.2 nM.
